Experimental data published in ChEMBL document CHEMBL5463729, “Data for DCP probe BAY 1753011” (2023).
Values belong to the compound of their own block, whether it stands above or below them.

Assays:
[1] = biological target: 5-hydroxytryptamine receptor 1D (Homo sapiens) (UniProt P28221); settings: Compound concentration 10.0 uM
[2] = biological target: [Pyruvate dehydrogenase (acetyl-transferring)] kinase isozyme 2, mitochondrial (Homo sapiens) (UniProt Q15119); experiment: Inhibition of PDHK2(h) at 10.0 µM in the Eurofins Kinase panel; settings: Compound concentration 10.0 uM
[3] = biological target: Gamma-aminobutyric acid type B receptor subunit 1 (Homo sapiens) (UniProt Q9UBS5); settings: Rattus norvegicus; Compound concentration 10.0 uM
Gamma-aminobutyric acid type B receptor subunit 1 (Homo sapiens), sequence (Q9UBS5 whole entry): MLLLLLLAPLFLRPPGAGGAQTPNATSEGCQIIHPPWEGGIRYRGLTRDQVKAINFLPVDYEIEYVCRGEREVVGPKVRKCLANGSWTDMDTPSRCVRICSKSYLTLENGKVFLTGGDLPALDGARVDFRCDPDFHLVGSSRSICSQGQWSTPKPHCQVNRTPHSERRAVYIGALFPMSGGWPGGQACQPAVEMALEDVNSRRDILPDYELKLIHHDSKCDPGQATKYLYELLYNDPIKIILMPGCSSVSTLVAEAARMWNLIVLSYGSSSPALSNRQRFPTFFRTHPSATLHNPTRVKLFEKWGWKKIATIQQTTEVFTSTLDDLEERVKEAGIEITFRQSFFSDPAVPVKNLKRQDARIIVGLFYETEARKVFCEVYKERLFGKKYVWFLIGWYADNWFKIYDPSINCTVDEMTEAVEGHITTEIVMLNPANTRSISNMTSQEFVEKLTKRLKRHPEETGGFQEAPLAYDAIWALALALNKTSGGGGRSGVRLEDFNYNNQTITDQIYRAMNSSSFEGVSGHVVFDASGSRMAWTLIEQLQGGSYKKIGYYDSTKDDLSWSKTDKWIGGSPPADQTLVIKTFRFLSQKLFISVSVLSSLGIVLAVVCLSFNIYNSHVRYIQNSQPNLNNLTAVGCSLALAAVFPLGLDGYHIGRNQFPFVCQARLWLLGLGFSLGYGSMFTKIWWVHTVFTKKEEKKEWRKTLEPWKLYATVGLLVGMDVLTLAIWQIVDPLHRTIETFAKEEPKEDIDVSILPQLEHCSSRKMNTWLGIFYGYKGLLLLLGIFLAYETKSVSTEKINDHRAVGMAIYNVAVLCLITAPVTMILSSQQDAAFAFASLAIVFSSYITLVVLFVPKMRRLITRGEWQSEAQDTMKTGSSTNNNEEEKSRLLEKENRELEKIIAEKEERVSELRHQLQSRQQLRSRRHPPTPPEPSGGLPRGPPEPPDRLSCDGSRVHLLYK

Oryctolagus cuniculus = organism: Oryctolagus cuniculus; settings: Compound concentration 10.0 uM
Homo sapiens [4] = organism: Homo sapiens; settings: Compound concentration 10.0 uM
Vasopressin V1a receptor [5] = biological target: T1, Vasopressin V1a receptor (Homo sapiens, UniProt P37288); experiment: Assay with bioluminescence detection (AVPR1). (The vasopressin receptor cells react to stimulation of the recombinantly expressed V1a receptors by intracellular release of calcium ions, which can be quantified by the resulting photoprotein luminescence).; assay type: functional, cell-based, CHO-K1
T1 sequence (P37288 whole entry): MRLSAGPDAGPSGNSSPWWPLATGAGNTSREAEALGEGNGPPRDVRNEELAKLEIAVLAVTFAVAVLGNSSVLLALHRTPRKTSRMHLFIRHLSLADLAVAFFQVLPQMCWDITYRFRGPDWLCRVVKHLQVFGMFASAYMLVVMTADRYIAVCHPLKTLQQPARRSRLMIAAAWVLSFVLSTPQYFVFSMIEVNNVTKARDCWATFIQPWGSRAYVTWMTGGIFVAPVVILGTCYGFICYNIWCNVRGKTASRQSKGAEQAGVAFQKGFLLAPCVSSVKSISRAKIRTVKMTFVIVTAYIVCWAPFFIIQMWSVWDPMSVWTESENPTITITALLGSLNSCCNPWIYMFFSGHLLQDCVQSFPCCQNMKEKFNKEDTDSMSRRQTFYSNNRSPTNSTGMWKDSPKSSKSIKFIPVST

[6] = biological target: T2, Purinergic P2Y (Rattus norvegicus) (UniProt O35811+Q9EPX4+P49651+Q63371+P41232+O35881+Q6GUG4); experiment: Inhibition of Purinergic P2Y at compound concentration of 10.0 uM in the Eurofins-Panlabs radioligand binding assay (Eurofins_assay_268820); assay type: protein assay; set-up: ligand concentration 0.1 nM; settings: Compound concentration 10.0 uM
[7] = biological target: Citron Rho-interacting kinase (Homo sapiens) (UniProt O14578); experiment: Inhibition of CRIK(h) at 10.0 µM in the Eurofins Kinase panel; settings: Compound concentration 10.0 uM
[8] = biological target: Insulin-like growth factor 1 receptor (Homo sapiens) (UniProt P08069); experiment: Inhibition of IGF-1R(h) at 10.0 µM in the Eurofins Kinase panel; settings: Compound concentration 10.0 uM
[9] = biological target: Serine/threonine-protein kinase ICK (Homo sapiens) (UniProt Q9UPZ9); experiment: Inhibition of ICK(h) at 10.0 µM in the Eurofins Kinase panel; settings: Compound concentration 10.0 uM
[10] = biological target: 3-hydroxy-3-methylglutaryl-coenzyme A reductase (Homo sapiens) (UniProt P04035); experiment: Inhibition of HMG-CoA Reductase at compound concentration of 10.0 uM in the Eurofins-Panlabs enzyme assay (Eurofins_assay_124010); set-up: substrate with concentration; settings: Compound concentration 10.0 uM
[11] = biological target: Gamma-aminobutyric acid type B receptor subunit 1 (Homo sapiens) (UniProt Q9UBS5); experiment: Inhibition of GABAB1A at compound concentration of 10.0 uM in the Eurofins-Panlabs radioligand binding assay (Eurofins_assay_228610); set-up: ligand concentration 4 nM; settings: Compound concentration 10.0 uM
[12] = biological target: Neutrophil elastase (Homo sapiens) (UniProt P08246); experiment: Inhibition of Peptidase, ELA2 (Neutrophil Elastase 2) at 10 µM in the Eurofins-Panlabs enzyme assay (Eurofins_assay_166010); settings: Compound concentration 10.0 uM
Neutrophil elastase (Homo sapiens), sequence (P08246 whole entry): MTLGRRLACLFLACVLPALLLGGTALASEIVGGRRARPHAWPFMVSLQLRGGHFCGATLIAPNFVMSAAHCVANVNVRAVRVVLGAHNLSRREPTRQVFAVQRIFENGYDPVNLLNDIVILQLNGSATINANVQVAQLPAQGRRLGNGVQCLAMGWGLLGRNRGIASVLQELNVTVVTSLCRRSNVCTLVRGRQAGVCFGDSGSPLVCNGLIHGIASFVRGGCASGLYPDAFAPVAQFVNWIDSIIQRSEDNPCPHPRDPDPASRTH

[13] = biological target: GABA-A receptor; anion channel; experiment: GPCRScan assay: inhibition of GABAA/BZP; assay type: protein-complex assay, Rattus norvegicus; set-up: radioligand conc. used [nm] 0.6 – 4.0, parental cells brain tissue
[14] = biological target: GABA-A receptor; anion channel (Rattus norvegicus) (UniProt O09028+P15431+P18506+P18508+P19969+P20236+P23574+P23576+P28471+P28473+P30191+P62813+P63079+P63138+Q91ZM7+Q9ES14); experiment: Inhibition of GABAA, Muscimol, Central at 10 µM in the Eurofins-Panlabs radioligand binding assay (Eurofins_assay_226500); assay type: protein-complex assay; settings: Compound concentration 10.0 uM
Homo sapiens [15] = organism: Homo sapiens; experiment: Inhibition of Tumor Necrosis Factor (TNF), Non-Selective at 10 µM in the Eurofins-Panlabs radioligand binding assay (Eurofins_assay_286510); settings: Compound concentration 10.0 uM
[16] = biological target: Neuropeptide Y receptor type 2 (Homo sapiens) (UniProt P49146); experiment: Inhibition of Neuropeptide Y Y2 at 10 µM in the Eurofins-Panlabs radioligand binding assay (Eurofins_assay_257110); settings: Compound concentration 10.0 uM
[17] = biological target: Melatonin receptor type 1A (Homo sapiens) (UniProt P48039); experiment: Inhibition of Melatonin MT1 at 10 µM in the Eurofins-Panlabs radioligand binding assay (Eurofins_assay_251600); set-up: ligand concentration 0.05 nM; settings: Compound concentration 10.0 uM
Melatonin receptor type 1A (Homo sapiens), sequence (P48039 whole entry): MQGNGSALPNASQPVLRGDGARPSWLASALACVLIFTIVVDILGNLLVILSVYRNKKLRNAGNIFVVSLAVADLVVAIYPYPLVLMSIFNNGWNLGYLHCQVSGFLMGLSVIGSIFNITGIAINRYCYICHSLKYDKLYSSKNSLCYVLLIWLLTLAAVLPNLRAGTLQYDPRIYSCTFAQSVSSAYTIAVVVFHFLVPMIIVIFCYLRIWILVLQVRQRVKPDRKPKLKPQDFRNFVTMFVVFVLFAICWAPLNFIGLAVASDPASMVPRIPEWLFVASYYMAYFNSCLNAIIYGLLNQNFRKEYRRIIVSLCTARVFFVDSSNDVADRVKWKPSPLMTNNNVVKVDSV

[18] = biological target: Melanocortin receptor 3 (Homo sapiens) (UniProt P41968); experiment: Inhibition of Melanocortin MC3 at 10 µM in the Eurofins-Panlabs radioligand binding assay (Eurofins_assay_251300); set-up: ligand concentration 0.035 nM; settings: Compound concentration 10.0 uM
[19] = biological target: Serine/threonine-protein kinase BRSK2 (Homo sapiens) (UniProt Q8IWQ3); experiment: Inhibition of BrSK2(h) at 10.0 µM in the Eurofins Kinase panel; settings: Compound concentration 10.0 uM
[20] = biological target: Beta-2 adrenergic receptor (Homo sapiens) (UniProt P07550); settings: Compound concentration 10.0 uM
Beta-2 adrenergic receptor (Homo sapiens), sequence (P07550 whole entry, looked up): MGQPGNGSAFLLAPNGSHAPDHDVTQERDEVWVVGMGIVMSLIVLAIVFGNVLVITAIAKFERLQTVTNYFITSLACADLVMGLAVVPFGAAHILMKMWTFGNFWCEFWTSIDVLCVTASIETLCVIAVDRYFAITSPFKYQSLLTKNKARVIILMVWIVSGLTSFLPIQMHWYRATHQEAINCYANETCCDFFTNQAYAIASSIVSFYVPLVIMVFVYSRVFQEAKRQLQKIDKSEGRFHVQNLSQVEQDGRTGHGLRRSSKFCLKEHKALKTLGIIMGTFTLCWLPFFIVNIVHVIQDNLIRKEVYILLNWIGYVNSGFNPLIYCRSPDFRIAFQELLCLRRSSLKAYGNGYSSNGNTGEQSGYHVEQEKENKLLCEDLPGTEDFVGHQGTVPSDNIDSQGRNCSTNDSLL

Vasopressin V1a receptor [21] = biological target: T1, Vasopressin V1a receptor; experiment: Inhibition of Vasopressin V1A at compound concentration of 10.0 uM in the Eurofins-Panlabs radioligand binding assay (Eurofins_assay_287530); set-up: ligand concentration 0.03 nM, non-specific ligand with concentration 1 uM (Arg8)-Vasopressin, incubation time 2 h, incubation temperature 25 C
[22] = biological target: C-C chemokine receptor type 5 (Homo sapiens) (UniProt P51681); experiment: Inhibition of Chemokine CCR5 at 10 µM in the Eurofins-Panlabs radioligand binding assay (Eurofins_assay_217720); settings: Compound concentration 10.0 uM
C-C chemokine receptor type 5 (Homo sapiens), sequence (P51681 whole entry, looked up): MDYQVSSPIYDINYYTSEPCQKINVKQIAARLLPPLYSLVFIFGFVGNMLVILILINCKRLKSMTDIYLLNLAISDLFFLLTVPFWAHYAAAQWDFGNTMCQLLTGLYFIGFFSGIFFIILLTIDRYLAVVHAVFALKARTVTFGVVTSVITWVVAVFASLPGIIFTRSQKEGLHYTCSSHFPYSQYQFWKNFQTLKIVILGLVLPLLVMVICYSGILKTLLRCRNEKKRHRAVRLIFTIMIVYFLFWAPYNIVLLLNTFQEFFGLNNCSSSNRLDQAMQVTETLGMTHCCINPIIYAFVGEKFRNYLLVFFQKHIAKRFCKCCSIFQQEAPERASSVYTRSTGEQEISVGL

[23] = biological target: Tyrosine-protein kinase Fyn (Homo sapiens) (UniProt P06241); experiment: Inhibition of Protein Tyrosine Kinase, Fyn at 10 µM in the Eurofins-Panlabs enzyme assay (Eurofins_assay_172020); set-up: substrate with concentration; settings: Compound concentration 10.0 uM
[24] = biological target: AP2-associated protein kinase 1 (Homo sapiens) (UniProt Q2M2I8); experiment: Inhibition of AAK1(h) at 10.0 µM in the Eurofins Kinase panel; settings: Compound concentration 10.0 uM
[25] = biological target: Calcium/calmodulin-dependent protein kinase type II subunit alpha (Homo sapiens) (UniProt Q9UQM7); experiment: Inhibition of CaMKIIalpha(h) at 10.0 µM in the Eurofins Kinase panel; settings: Compound concentration 10.0 uM
Calcium/calmodulin-dependent protein kinase type II subunit alpha (Homo sapiens), sequence (Q9UQM7 whole entry): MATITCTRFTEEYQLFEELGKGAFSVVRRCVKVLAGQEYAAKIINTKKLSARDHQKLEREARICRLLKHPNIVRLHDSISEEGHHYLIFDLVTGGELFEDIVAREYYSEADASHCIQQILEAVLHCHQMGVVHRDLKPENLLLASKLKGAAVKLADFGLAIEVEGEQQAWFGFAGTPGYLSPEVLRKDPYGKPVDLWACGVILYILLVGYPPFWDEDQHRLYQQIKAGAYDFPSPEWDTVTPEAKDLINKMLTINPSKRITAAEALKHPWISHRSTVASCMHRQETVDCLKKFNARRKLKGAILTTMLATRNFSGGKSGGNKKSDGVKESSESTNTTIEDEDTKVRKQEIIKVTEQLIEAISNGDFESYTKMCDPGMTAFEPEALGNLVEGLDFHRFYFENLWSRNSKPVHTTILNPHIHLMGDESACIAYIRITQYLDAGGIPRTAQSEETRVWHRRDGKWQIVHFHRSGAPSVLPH

Rattus norvegicus [26] = organism: Rattus norvegicus; experiment: Inhibition of Glutamate, NMDA, Phencyclidine at 10 µM in the Eurofins-Panlabs radioligand binding assay (Eurofins_assay_233000); assay type: protein-complex assay; settings: Compound concentration 10.0 uM
Rattus norvegicus [27] = organism: Rattus norvegicus; experiment: Inhibition of Thyroid Hormone at 10 µM in the Eurofins-Panlabs radioligand binding assay (Eurofins_assay_285900); assay type: protein assay; settings: Compound concentration 10.0 uM
[28] = biological target: T2, Purinergic P2Y (Rattus norvegicus); settings: Compound concentration 10.0 uM
[29] = biological target: Voltage-dependent N-type calcium channel subunit alpha-1B (Homo sapiens) (UniProt Q00975); experiment: Inhibition of Calcium Channel N-Type at 10 µM in the Eurofins-Panlabs radioligand binding assay (Eurofins_assay_216000); settings: Rattus norvegicus; Compound concentration 10.0 uM
[30] = biological target: Prostaglandin G/H synthase 1 (Homo sapiens) (UniProt P23219); experiment: Inhibition of Cyclooxygenase COX-1 at compound concentration of 10.0 uM in the Eurofins-Panlabs enzyme assay (Eurofins_assay_116020); settings: Compound concentration 10.0 uM
Prostaglandin G/H synthase 1 (Homo sapiens), sequence (P23219 whole entry): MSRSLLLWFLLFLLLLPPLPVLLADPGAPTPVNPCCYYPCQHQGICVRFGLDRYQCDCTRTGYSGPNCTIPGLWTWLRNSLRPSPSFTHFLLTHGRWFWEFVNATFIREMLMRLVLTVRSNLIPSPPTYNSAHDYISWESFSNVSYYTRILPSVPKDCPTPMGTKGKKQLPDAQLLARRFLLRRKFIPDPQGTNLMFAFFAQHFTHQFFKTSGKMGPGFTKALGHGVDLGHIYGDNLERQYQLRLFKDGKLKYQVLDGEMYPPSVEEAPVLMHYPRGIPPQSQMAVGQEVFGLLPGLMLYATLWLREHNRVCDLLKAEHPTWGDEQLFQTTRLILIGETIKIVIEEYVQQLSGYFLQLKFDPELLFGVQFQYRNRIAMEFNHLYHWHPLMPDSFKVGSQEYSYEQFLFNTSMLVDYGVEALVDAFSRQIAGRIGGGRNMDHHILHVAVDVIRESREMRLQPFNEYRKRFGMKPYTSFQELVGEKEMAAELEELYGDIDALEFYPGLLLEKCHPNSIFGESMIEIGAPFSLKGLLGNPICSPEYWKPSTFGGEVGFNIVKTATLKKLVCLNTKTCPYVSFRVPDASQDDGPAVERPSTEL

[31] = biological target: ATP-sensitive inward rectifier potassium channel 11 (Cricetulus griseus) (UniProt A0A3L7HHE1); experiment: Inhibition of Potassium Channel [KATP] at 10 µM in the Eurofins-Panlabs radioligand binding assay (Eurofins_assay_265600); settings: Cricetinae; Compound concentration 10.0 uM
[32] = biological target: Interstitial collagenase (Homo sapiens) (UniProt P03956); experiment: Inhibition of Peptidase, Matrix Metalloproteinase-1 (MMP-1) at 10 µM in the Eurofins-Panlabs enzyme assay (Eurofins_assay_114110); settings: Compound concentration 10.0 uM
Interstitial collagenase (Homo sapiens), sequence (P03956 whole entry): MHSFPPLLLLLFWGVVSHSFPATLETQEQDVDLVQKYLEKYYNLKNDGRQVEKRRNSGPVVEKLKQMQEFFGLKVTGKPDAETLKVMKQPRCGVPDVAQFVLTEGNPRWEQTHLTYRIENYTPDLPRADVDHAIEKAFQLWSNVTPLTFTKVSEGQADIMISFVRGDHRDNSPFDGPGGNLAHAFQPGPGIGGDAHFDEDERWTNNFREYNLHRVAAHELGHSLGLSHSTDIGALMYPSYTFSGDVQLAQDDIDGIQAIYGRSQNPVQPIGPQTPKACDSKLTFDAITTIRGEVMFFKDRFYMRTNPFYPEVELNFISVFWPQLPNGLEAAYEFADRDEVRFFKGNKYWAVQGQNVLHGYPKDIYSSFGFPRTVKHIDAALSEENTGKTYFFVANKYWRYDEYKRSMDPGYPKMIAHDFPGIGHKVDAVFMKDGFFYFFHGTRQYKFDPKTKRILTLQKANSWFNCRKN

5-hydroxytryptamine receptor 1D (Homo sapiens), sequence (P28221 whole entry): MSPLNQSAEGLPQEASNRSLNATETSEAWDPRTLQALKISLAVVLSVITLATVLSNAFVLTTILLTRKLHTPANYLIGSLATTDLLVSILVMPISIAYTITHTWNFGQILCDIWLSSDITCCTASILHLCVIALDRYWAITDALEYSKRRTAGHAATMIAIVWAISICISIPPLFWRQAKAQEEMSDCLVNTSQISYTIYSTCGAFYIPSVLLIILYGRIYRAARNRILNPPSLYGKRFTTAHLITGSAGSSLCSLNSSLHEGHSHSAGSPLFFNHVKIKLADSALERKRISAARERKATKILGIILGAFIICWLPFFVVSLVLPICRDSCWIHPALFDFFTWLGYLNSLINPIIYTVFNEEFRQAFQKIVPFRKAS

inhibition [1]: 10.1%
inhibition [2]: -4.87%
inhibition [3]: 8%
inhibition (Oryctolagus cuniculus): -5%
inhibition (Homo sapiens [4]): -5%
IC50 (Vasopressin V1a receptor [5]): > 10000 nM (not active)
inhibition [6]: 4%
inhibition [7]: -2.08%
inhibition [8]: -8.87%
inhibition [9]: -9.83%
SMILES: O=c1n(Cc2cncn2-c2cccc(Cl)c2)nc(-c2ccc(Cl)cc2)n1C[C@H](O)C(F)(F)F

SMILES: C[C@H](O)c1nc(Cn2nc(-c3ccc(Cl)cc3)n(C[C@H](O)C(F)(F)F)c2=O)nn1-c1cccc(Cl)c1 [PECAVAPTAN]
inhibition [10]: 9%
inhibition [11]: -4%
inhibition [12]: 1%
Ki [13]: 2610 nM
pKi [13]: 5.58
inhibition [14]: -2%
inhibition (Homo sapiens [15]): -1%
inhibition [16]: 6%
inhibition [17]: -6%
inhibition [18]: 6%
inhibition [19]: -4.83%
inhibition [20]: -4.34%
IC50 (Vasopressin V1a receptor [21]): 6.74 nM
Ki (Vasopressin V1a receptor [21]): 1.33 nM
inhibition [22]: -3%
inhibition [23]: -6%
inhibition [24]: -9.01%
inhibition [25]: -6.92%
inhibition (Rattus norvegicus [26]): 14%
inhibition (Rattus norvegicus [27]): 6%
inhibition [28]: 0%
inhibition [29]: -2%
inhibition [30]: -3%
inhibition [31]: 18%
inhibition [32]: 3%
